Source: US6410573B1, “2,5-substituted benzolsulfonylureas and thioureas methods for the production thereof use thereof and pharmaceutical preparations containing the same” (Aventis Pharma Deutschland GmbH, priority 1998, dated 2002)

Key:
[1] = tested on: papillary muscle of the guinea pig; assay: Action potential duration (APD90) in the papillary muscle of the guinea pig, shortened by rilmakalim (HOE 234); type: cell-based; conditions: test substance 2 μmol/l, 60 min after its addition; rilmakalim (HOE 234) 1 μg/ml given 30 min before; starting values 165-191, after HOE 234 alone 18-37; 37° C., 1 Hz
Description: Test 1: Action potential duration in the papillary muscle of the guinea pig
ATP deficiency states, such as are observed during ischemia in the cardiac muscle cell, lead to a reduction of the action potential duration. They are regarded as one of the causes of so-called reentry arrhythmias, which can cause sudden heart death. The opening of ATP-sensitive potassium channels by the lowering of ATP (adenosine triphosphate) is regarded as causing this.
A standard microelectrode technique was employed for the measurement of the action potential in the papillary muscle of the guinea pig. For this guinea pigs of both sexes were killed by a blow to the head, the hearts were removed, the papillary muscles were separated out and suspended in an organ bath. The organ bath was irrigated with Ringer's solution (136 mmol/l of NaCl, 3.3 mmol/l of KCl, 2.5 mmol/l of CaCl2, 1.2 mmol/l of KH2PO4, 1.1 mmol/l of MgSO4, 5.0 mmol/l of glucose, 10.0 mmol/l of N-(2-hydroxyethyl)piperazine-N′-(2-ethanesulfonic acid) (HEPES), pH adjusted to 7.4 with NaOH) and aerated with 100% oxygen at a temperature of 37° C. The muscle was stimulated by means of an electrode using squarewave impulses of 1 V and 1 ms duration and a frequency of 1 Hz. The action potential was derived and recorded by means of a glass microelectrode inserted intracellularly, which is filled with 3 mol/l of KCl solution. The substance to be tested was added to the Ringer's solution in a concentration of 2 μmol/l. The action potential was amplified using an amplifier from Hugo Sachs (March-Hugstetten, Germany) and stored and analyzed by means of a computer. The duration of the action potential was determined at a degree of repolarization of 90% (APD90). The action potential reduction was produced by addition of a solution of the potassium channel opener rilmakalim (HOE 234) (W. Linz, E. Klaus, U. Albus, R. H. A. Becker, D. Mania, H. C. Englert, B. A. Schölkens, Arzneimittelforschung/Drug Research, 42 (II) (1992) 1180-1185) (rilmakalim concentration 1 μg/ml). 30 minutes after the administration of rilmakalim, the action potential duration APD90 was recorded. The test substance was then added and the action potential duration APD90, which was extended again, was recorded after a further 60 minutes. The test substances were added to the bath solution as stock solutions in propanediol.

RINm5F cells = assay: Membrane potential on isolated β cells (whole-cell patch clamp, RINm5F cells); type: cell-based; conditions: 1 μmol/l test substance, diaxozide 100 μmol/l in bath, 34±1° C., control potential before addition −70 to −78 mV
Description: Test 2: Membrane potential on isolated β cells
The mechanism of action of the hypoglycemic sulfonylureas such as, for example, glibenclamide has been elucidated in broad outline. The target organ of the sulfonylureas is the β cell of the pancreas, where they contribute to the release of the hypoglycemic hormone insulin by influencing the electrical potential of the cell membrane. A hypoglycemic sulfonylurea such as, for example, glibenclamide brings about a depolarization of the cell membrane, which leads to a […] influx of calcium ions and as a consequence of this to insulin release. The extent ΔU of this depolarization of the cell membrane by the test substances was determined on insulin-secreting RINm5F cells, a pancreas tumor cell line. The potency of a compound in this model predicts the extent of the […] potential of this compound.
Cell cultures of RINm5F cells: RINm5F cells were cultured at 37° C. in RPMI 1640 culture medium (Flow), to which 11 mmol/l of glucose, 10% (v/v) fetal calf serum, 2 mmol/l of glutamine and 50 μg/ml of gentamycin were added. The cells were inoculated onto petri dishes every 2 to 3 days and kept in a humidified atmosphere of […] and 5% CO2 at a temperature of 37° C. For the investigations, the cells were isolated by incubation (about 3 min) in a Ca^2+-free medium which contains 0.25% trypsin.
Measuring method: in a Plexiglas chamber, isolated RINm5F cells were applied to an inverted microscope which was equipped with differential interference contrast optics. Under visual control (400× magnification), a fire-polished micropipette having an opening diameter of approximately 1 μm was placed onto the cell with the aid of a micromanipulator. By applying a slight underpressure to the interior of the patch pipette, a high electrical seal between the glass and cell membrane was first produced. Then, by increasing the underpressure, the membrane spot under the measuring pipette was torn off. In this whole-cell configuration, the cell potential was recorded with the aid of a patch clamp amplifier (L/M EPC 7, List, Darmstadt) and the whole-cell current was measured by applying a voltage ramp. […] Stock solutions of the test substances in a concentration of 100 mmol/l in DMSO and corresponding dilutions in an NaCl solution were prepared. DMSO on its own had no effect on the cell potential. In order to stabilize the cell potential, diaxozide (100 μmol/l), an opener for ATP-sensitive K^+ channels, was added to the bath solution in all experiments. All experiments were carried out at 34±1° C.

Compound	APD90 +HOE 234, 30 min., then +substance, 60 min. [1]	ΔU (depolarization of the cell potential) (RINm5F cells)	melting point
CNC(=S)NS(=O)(=O)c1cc(CCNC(=O)c2cc(Cl)ccc2OC)ccc1-c1ccccc1 [Example 1, 5-(2-(5-Chloro-2-methoxybenzamido)ethyl)-N-(methylaminothiocarbonyl)-2-phenylbenzenesulfonamide]	134 milliseconds	6 mV	–
CCNC(=S)NS(=O)(=O)c1cc(CCNC(=O)c2cc(Cl)ccc2OC)ccc1-c1ccccc1 [Example 3, 5-(2-(5-Chloro-2-methoxybenzamido)ethyl)-N-(ethylaminothiocarbonyl)-2-phenylbenzenesulfonamide]	–	–	168 to 170 °C
CCNC(=O)NS(=O)(=O)c1cc(CCNC(=O)c2cc(Cl)ccc2OC)ccc1-c1ccccc1 [Example 4, 5-(2-(5-Chloro-2-methoxybenzamido)ethyl)-N-(ethylaminocarbonyl)-2-phenylbenzenesulfonamide]	81 milliseconds	–	–
CNC(=S)NS(=O)(=O)c1cc(CCNC(=O)c2cc(Cl)ccc2OC)ccc1-c1ccc(F)cc1 [Example 7, 5-(2-(5-Chloro-2-methoxybenzamido)ethyl)-2-(4-fluorophenyl)-N-(methyl-aminothiocarbonyl)benzenesulfonamide]	71 milliseconds	–	–
CNC(=S)NS(=O)(=O)c1cc(CCNC(=O)c2cc(Cl)ccc2OC)ccc1-c1ccc(Cl)cc1 [Example 8, 5-(2-(5-Chloro-2-methoxybenzamido)ethyl)-2-(4-chlorophenyl)-N-(methyl-aminothiocarbonyl)benzenesulfonamide]	–	–	189 to 192 °C
CNC(=S)NS(=O)(=O)c1cc(CCNC(=O)c2cc(Cl)ccc2OC)ccc1-c1ccc(OC)cc1 [Example 9, 5-(2-(5-Chloro-2-methoxybenzamido)ethyl)-2-(4-methoxyphenyl)-N-(methylaminothiocarbonyl)benzenesulfonamide]	–	15 mV	185 to 188 °C
CCNC(=S)NS(=O)(=O)c1cc(CCNC(=O)c2cc(Cl)ccc2OC)ccc1-c1ccc(SC)cc1 [Example 10, 5-(2-(5-Chloro-2-methoxybenzamido)ethyl)-N-(ethylaminothiocarbonyl)-2-(4-methylthiophenyl)benzenesulfonamide]	–	–	178 to 179 °C
CNC(=S)NS(=O)(=O)c1cc(CCNC(=O)c2cc(Cl)ccc2OC)ccc1-c1cccs1 [Example 12, 5-(2-(5-Chloro-2-methoxybenzamido)ethyl)-N-(methylaminothiocarbonyl)-2-(2-thienyl)benzenesulfonamide]	–	5 mV	189 to 191 °C
CNC(=O)NS(=O)(=O)c1cc(CCNC(=O)c2cc(Cl)ccc2OC)ccc1-c1cccs1 [Example 13, 5-(2-(5-Chloro-2-methoxybenzamido)ethyl)-N-(methylaminocarbonyl)-2-(2-thienyl)benzenesulfonamide]	72 milliseconds	–	–
CNC(=S)NS(=O)(=O)c1cc(CCNC(=O)c2cc(Cl)ccc2OC)ccc1-c1ccco1 [Example 14, 5-(2-(5-Chloro-2-methoxybenzamido)ethyl)-2-(2-furyl)-N-(methylaminothiocarbonyl)benzenesulfonamide]	–	7 mV	145 to 146 °C
CNC(=O)NS(=O)(=O)c1cc(CCNC(=O)c2cc(Cl)ccc2OC)ccc1-c1ccco1 [Example 15, 5-(2-(5-Chloro-2-methoxybenzamido)ethyl)-2-(2-furyl)-N-(methylaminocarbonyl)benzenesulfonamide]	83 milliseconds	–	–
CNC(=S)NS(=O)(=O)c1cc(CCNC(=O)c2cc(Cl)ccc2OC)ccc1-c1ccccn1 [Example 16, 5-(2-(5-Chloro-2-methoxybenzamido)ethyl)-N-(methylaminothiocarbonyl)-2-(2-pyridyl)benzenesulfonamide]	153 milliseconds	–	–
CNC(=O)NS(=O)(=O)c1cc(CCNC(=O)c2cc(Cl)ccc2OC)ccc1-c1ccccn1 [Example 17, 5-(2-(5-Chloro-2-methoxybenzamido)ethyl)-N-(methylaminocarbonyl)-2-(2-pyridyl)benzenesulfonamide]	–	–	160 °C
C=CCc1ccc(CCNC(=O)c2cc(Cl)ccc2OC)cc1S(=O)(=O)NC(=O)NC [Example 18, 2-Allyl-5-(2-(5-chloro-2-methoxybenzamido)ethyl)-N-(methylaminocarbonyl)benzenesulfonamide]	–	–	124 to 126 °C
C#Cc1ccc(CCNC(=O)c2cc(Cl)ccc2OC)cc1S(=O)(=O)NC(=S)NC [Example 19, 5-(2-(5-Chloro-2-methoxybenzamido)ethyl)-2-ethynyl-N-(methylaminothiocarbonyl)benzenesulfonamide]	–	–	224 to 225 °C
CNC(=S)NS(=O)(=O)c1cc(CCNC(=O)c2cc(Cl)ccc2OC)ccc1Sc1ccccc1 [Example 20, 5-(2-(5-Chloro-2-methoxybenzamido)ethyl)-N-(methylaminothiocarbonyl)-2-(phenylsulfanyl)benzenesulfonamide]	139 milliseconds	–	–
COc1ccc(Cl)cc1C(=O)NCCc1ccc(S(=O)(=O)NC(=O)NC2CCCCC2)cc1 [Glibenclamide, reference compound]	–	47 mV	–
